Data from BindingDB's records for patent US20240335427 (Dana-Farber Cancer Institute, 2024).

Biological target: Josephin-1 (Homo sapiens, UniProt Q15040)
Description: Human JOSD1 protein was purified according to standard protocols.

N#CN1CC[C@@H](C(=O)Nc2nc3ccc(-c4ccc5[nH]ncc5c4)cc3s2)C1 [US20240335427, Compound 7]
IC50: 95 nM
